MIC, HC50 and Ratio data for nine compounds are collected here from ChEMBL document CHEMBL5338704, “Discovery of novel phenylhydrazone-based oxindole-thiolazoles as potent antibacterial agents toward Pseudomonas aeruginosa” (Eur J Med Chem, 2022).

≈ marks a conversion by molar mass, not a printed value.

Data set [1] deals with Staphylococcus aureus. Kind of data set: Antibacterial activity against methicillin resistant Staphylococcus aureus assessed as inhibition of bacterial growth by micro-broth dilution assay. The data set is classed as functional. (In general: Broth dilution looks for growth in wells or tubes with falling amounts of substance.)
The test system of data set [2] is Staphylococcus aureus. Briefly: Antibacterial activity against Staphylococcus aureus assessed as inhibition of bacterial growth by micro-broth dilution assay. The data set is classed as functional.
In data set [3] the test system is Staphylococcus aureus. Kind of data set: Antibacterial activity against Staphylococcus aureus ATCC 25923 assessed as inhibition of bacterial growth by micro-broth dilution assay. Type of data set: functional.
In data set [4] the test system is Staphylococcus aureus. Briefly: Antibacterial activity against Staphylococcus aureus ATCC 29213 assessed as inhibition of bacterial growth by micro-broth dilution assay. The data set is classed as functional.
Data set [5] concerns Enterococcus faecalis. Kind of data set: Antibacterial activity against Enterococcus faecalis assessed as inhibition of bacterial growth by micro-broth dilution assay. Type of data set: functional.
In data set [6] the test system is Klebsiella pneumoniae. Kind of data set: Antibacterial activity against Klebsiella pneumoniae assessed as inhibition of bacterial growth by micro-broth dilution assay. Type of data set: functional.
Data set [7] deals with Escherichia coli. Kind of data set: Antibacterial activity against Escherichia coli assessed as inhibition of bacterial growth by micro-broth dilution assay. Type of data set: functional.
The test system of data set [8] is Escherichia coli. Kind of data set: Antibacterial activity against Escherichia coli ATCC 25922 assessed as inhibition of bacterial growth by micro-broth dilution assay. The data set is classed as functional.
In data set [9] the test system is Pseudomonas aeruginosa. Kind of data set: Antibacterial activity against Pseudomonas aeruginosa assessed as inhibition of bacterial growth by micro-broth dilution assay. The data set is classed as functional.
Data set [10] concerns Pseudomonas aeruginosa. Kind of data set: Antibacterial activity against Pseudomonas aeruginosa ATCC 27853 assessed as inhibition of bacterial growth by micro-broth dilution assay. Type of data set: functional.
The test system of data set [11] is Acinetobacter baumannii. Briefly: Antibacterial activity against Acinetobacter baumannii assessed as inhibition of bacterial growth by micro-broth dilution assay. Type of data set: functional.
The nature of data set [12]: Hemolytic activity in RBC (unknown origin) assessed as hemolysis. Particulars: red blood cells (erythrocytes). The data set is classed as toxicity, cell-based, Erythrocyte.
The test system of data set [13] is Acinetobacter baumannii. Kind of data set: Potency index, ratio of norfloxacin MIC to test compound MIC for antibacterial activity against Acinetobacter baumannii assessed as inhibition of bacterial growth by micro-broth dilution assay. The data set is classed as functional.

Turning to `Cn1ccnc1SCC(O)CN1C(=O)/C(=N\Nc2ccc(Cl)cc2)c2ccccc21` (stereo not given), the MIC (usually the lowest concentration found to suppress growth) came to 128 µg/mL (≈ 290 µM) in [1]; 16 µg/mL (≈ 36.2 µM) in data set [2]; 256 µg/mL (≈ 579 µM) in data set [3]; 64 µg/mL (≈ 145 µM) in data set [4]; 4 µg/mL (≈ 9.05 µM) in data set [5]; 2 µg/mL (≈ 4.53 µM) in data set [6]. Moreover, the minimal inhibitory concentration (MIC) in data set [7] was 32 µg/mL (≈ 72.4 µM); in [8] it was 128 µg/mL (≈ 290 µM); in [9], 64 µg/mL (≈ 145 µM); in data set [10], 32 µg/mL (≈ 72.4 µM); in data set [11] it was 16 µg/mL (≈ 36.2 µM). In addition, the HC50 (as a rule, the concentration giving 50% haemolysis) in [12] was 151 µg/mL.
Consider `Cn1nnnc1SCC(O)CN1C(=O)/C(=N\Nc2ccc(Cl)cc2)c2ccccc21` (stereo not given), for which the MIC amounted to 16 µg/mL (≈ 36 µM) in [1]; 32 µg/mL (≈ 72.1 µM) in data set [2]; 32 µg/mL (≈ 72.1 µM) in data set [3]; 256 µg/mL (≈ 577 µM) in data set [4]; 64 µg/mL (≈ 144 µM) in [5]; 2 µg/mL (≈ 4.51 µM) in data set [6]. Moreover, the MIC was 16 µg/mL (≈ 36 µM) in [7]; 4 µg/mL (≈ 9.01 µM) in [8]; 16 µg/mL (≈ 36 µM) in data set [9]; 32 µg/mL (≈ 72.1 µM) in [10]; 1 µg/mL (≈ 2.25 µM) in data set [11]. Moreover, the HC50 in data set [12] is more than 512 µg/mL. The Ratio in [13] came to 2.
For the compound `Cn1ccnc1SCC(O)CN1C(=O)C(=O)c2ccccc21` (stereo not given), the MIC in data set [1] turned out to be 128 µg/mL (≈ 403 µM); in [2] it was 64 µg/mL (≈ 202 µM); in data set [3], 32 µg/mL (≈ 101 µM); in [4], 64 µg/mL (≈ 202 µM); in data set [5], 128 µg/mL (≈ 403 µM); in data set [6] it was 64 µg/mL (≈ 202 µM). Moreover, the MIC is 128 µg/mL (≈ 403 µM) in [7]; 64 µg/mL (≈ 202 µM) in data set [8]; 64 µg/mL (≈ 202 µM) in data set [9]; 64 µg/mL (≈ 202 µM) in data set [10]; 64 µg/mL (≈ 202 µM) in data set [11]. Further, the HC50 in data set [12] is more than 512 µg/mL.
As for `Cn1nnnc1SCC(O)CN1C(=O)/C(=N\Nc2ccccc2)c2ccccc21` (stereo not given), the MIC in [1] was 16 µg/mL (≈ 39.1 µM); in data set [2], 64 µg/mL (≈ 156 µM); in [3] it was 128 µg/mL (≈ 313 µM); in data set [4], 128 µg/mL (≈ 313 µM); in [5], 32 µg/mL (≈ 78.1 µM); in data set [6] it was 2 µg/mL (≈ 4.88 µM). In addition, the MIC turned out to be 32 µg/mL (≈ 78.1 µM) in data set [7]; 16 µg/mL (≈ 39.1 µM) in [8]; 16 µg/mL (≈ 39.1 µM) in [9]; 32 µg/mL (≈ 78.1 µM) in data set [10]; 2 µg/mL (≈ 4.88 µM) in data set [11]. Besides, the 50% haemolytic concentration (HC50) in data set [12] is 406 µg/mL. In addition, in data set [13], the Ratio was found to be 2.
As to `O=C1C(=O)N(CC(O)CSc2nc[nH]n2)c2ccccc21` (stereo not given), the MIC in [1] came out at 64 µg/mL (≈ 210 µM); in data set [2], 128 µg/mL (≈ 421 µM); in data set [3] it was 32 µg/mL (≈ 105 µM); in [4], 64 µg/mL (≈ 210 µM); in data set [5] it was 64 µg/mL (≈ 210 µM); in data set [6], 32 µg/mL (≈ 105 µM). The MIC in [7] came out at 64 µg/mL (≈ 210 µM); in data set [8], 128 µg/mL (≈ 421 µM); in data set [9] it was 16 µg/mL (≈ 52.6 µM); in [10] it was 128 µg/mL (≈ 421 µM); in data set [11], 64 µg/mL (≈ 210 µM). In addition, the HC50 in data set [12] came to 285 µg/mL.
In the case of `O=C1/C(=N\Nc2ccc([N+](=O)[O-])cc2)c2ccccc2N1CC(O)CSc1nc[nH]n1` (stereo not given), the MIC in data set [1] was determined as 32 µg/mL (≈ 72.8 µM); in [2], 32 µg/mL (≈ 72.8 µM); in data set [3], 128 µg/mL (≈ 291 µM); in data set [4], 32 µg/mL (≈ 72.8 µM); in data set [5] it was 64 µg/mL (≈ 146 µM); in [6], 64 µg/mL (≈ 146 µM). Moreover, the minimal inhibitory concentration (MIC) in [7] stood at 64 µg/mL (≈ 146 µM); in data set [8] it was 128 µg/mL (≈ 291 µM); in data set [9], 32 µg/mL (≈ 72.8 µM); in data set [10] it was 64 µg/mL (≈ 146 µM); in data set [11], 32 µg/mL (≈ 72.8 µM). Also, the HC50 in data set [12] is more than 512 µg/mL.
In the case of `Cn1nnnc1SCC(O)CN1C(=O)/C(=N\Nc2ccc([N+](=O)[O-])cc2)c2ccccc21` (stereo not given), the MIC in data set [1] is 8 µg/mL (≈ 17.6 µM); in data set [2] it was 64 µg/mL (≈ 141 µM); in data set [3], 4 µg/mL (≈ 8.8 µM); in data set [4], 16 µg/mL (≈ 35.2 µM); in [5] it was 8 µg/mL (≈ 17.6 µM); in [6] it was 16 µg/mL (≈ 35.2 µM). Also, the minimum inhibitory concentration (MIC) was 64 µg/mL (≈ 141 µM) in data set [7]; 16 µg/mL (≈ 35.2 µM) in data set [8]; 2 µg/mL (≈ 4.4 µM) in [9]; 4 µg/mL (≈ 8.8 µM) in data set [10]; 64 µg/mL (≈ 141 µM) in data set [11]. In addition, the HC50 in data set [12] was determined as 262 µg/mL.
For `Cn1ccnc1SCC(O)CN1C(=O)/C(=N\Nc2ccc([N+](=O)[O-])cc2)c2ccccc21` (stereo not given), the minimum inhibitory concentration (MIC) in data set [1] is 64 µg/mL (≈ 141 µM); in data set [2], 128 µg/mL (≈ 283 µM); in [3] it was 64 µg/mL (≈ 141 µM); in data set [4], 128 µg/mL (≈ 283 µM); in data set [5] it was 128 µg/mL (≈ 283 µM); in data set [6], 32 µg/mL (≈ 70.7 µM). For the same compound, the MIC is 32 µg/mL (≈ 70.7 µM) in data set [7]; 128 µg/mL (≈ 283 µM) in data set [8]; 256 µg/mL (≈ 566 µM) in data set [9]; 16 µg/mL (≈ 35.4 µM) in [10]; 64 µg/mL (≈ 141 µM) in [11]. Moreover, in [12], the HC50 was more than 512 µg/mL.
As to `O=C(O)c1ccc(N/N=C2\C(=O)N(CC(O)CSc3nc[nH]n3)c3ccccc32)cc1` (stereo not given), the MIC in data set [1] came out at 4 µg/mL (≈ 9.12 µM); in [2] it was 64 µg/mL (≈ 146 µM); in data set [3], 8 µg/mL (≈ 18.2 µM); in data set [4], 4 µg/mL (≈ 9.12 µM); in data set [5] it was 2 µg/mL (≈ 4.56 µM); in data set [6] it was 2 µg/mL (≈ 4.56 µM). The MIC is 8 µg/mL (≈ 18.2 µM) in [7]; 32 µg/mL (≈ 73 µM) in data set [8]; 64 µg/mL (≈ 146 µM) in data set [9]; 16 µg/mL (≈ 36.5 µM) in data set [10]; 16 µg/mL (≈ 36.5 µM) in [11]. Further, the HC50 in data set [12] was determined as 282 µg/mL.
